Assay results as given in patent publication US9061012B2, “Uses of DGAT1 inhibitors” (Novartis AG, priority 2010, dated 2015).

Assays:
STZ rats = assay: Plasma triglycerides after Intralipid in a model of severe hypertriglyceridemia (STZ, high fat diet); assay type: in vivo, rat (male Sprague Dawley); details: for Plasma TG at 2 hrs / Plasma TG at 4 hrs: 10 mpk oral gavage 30 min before Intralipid 10 ml/kg; for Plasma TG at 2 hrs: 2 hrs post-Intralipid; for Plasma TG at 2 hrs / Plasma TG at 4 hrs / Pre-dose TG: mean ± SEM; for Plasma TG at 4 hrs / Plasma TGs at 4 hrs compared between groups: 4 hrs post-Intralipid; for Pre-dose TG: baseline immediately before dosing, 6 h fasted, group later given 10 mpk oral, n=10/group
Description: Male Sprague Dawley (SD) rats at 12 wks of age were studied. Orlistat (04139-100MG) and Streptozotocin (S0130-1G) were purchased from Sigma (St. Louis, Mo.).
Compounds were suspended in vehicle (0.5% methyl cellulose with 0.1% Tween-80) to achieve a dosing volume of 4 ml/kg and dosing concentration of 10 mpk for both compound 1 and orlistat (Sigma, St. Louis, Mo.).
Two weeks into consuming a 60% high fat diet, animals were treated with a 40 mpk dose of streptozotocin (STZ given intravenously (iv) in 10 mM sodium citrate in normal saline, pH=4.5). Nine days later, animals were assigned to three experimental groups (vehicle, compound 1 at 10 mpk, or orlistat at 10 mpk) on the basis of 6 hr fasted TG concentrations (n=10/group). On the morning of the study, 14 days after animals were placed in experimental groups, animals were fasted for 6 hours, after which studies commenced at 1100 hr with baseline blood collected by tail nick into ethylenediaminetetraacetic acid-lined tubes (Sarstedt, Nümbrecht, Germany).
The baseline blood sample (80 μl) was collected immediately prior to administering compounds. Rats were orally gavaged with drug or vehicle (4 ml/kg) beginning at 1100 hrs. Thirty minutes later, Intralipid was orally gavaged at 10 ml/kg to all rats, representing t=0 hr. At 2 and 4 hrs post-Intralipid, tail nick blood samples were taken to assess plasma TGs.
Blood samples remained on ice following collection for no longer than 30 min prior to centrifugation (10 min, 4° C., 1000 g) and resulting plasma was aliquoted for plasma TG analysis.
Plasma TGs (triglycerides) (corrected for glycerol) were compared on an absolute basis, as a percent change from baseline (% TGs), and as area above baseline over 0-4 hours (AABtg0-4-h) using the Trapezoidal rule. Percent change from baseline was calculated as follows: % change from baseline=([TGs] at 2 or 4 hrs)−([TGs] at baseline)*100 [TGs] at baseline Statistical Analyses
Data are reported as means±SEM. One-way ANOVA (analysis of variance) assessed between-group differences when any comparisons that were not time-dependent were made (body weight, pre-study plasma TGs, AABtg0-4-h). To assess that the Intralipid bolus produced a significant increase in plasma TGs in the vehicle group, a repeated measures (RM) one-way ANOVA was used with Tukey's posthoc test applied to compare plasma parameter means at 2 and 4 hrs vs. pre-treatment concentrations. RM two-way ANOVA was used to assess the significance of the treatment-by-time interaction for plasma parameters (TGs and % TGs) followed by Bonferroni's t-test to compare differences among the groups. Outliers were determined using the Grubb's Test for Outliers. Significance was set at P≦0.05.

Triton rat = assay: Plasma triglycerides after Intralipid and Triton WR-1339 in a model of impaired triglyceride clearance; assay type: in vivo, rat (male Sprague Dawley); details: for Plasma TG at 90 min: 90 min after Triton WR-1339 100 mg/kg i.v.; for Plasma TG at 90 min / Plasma TG at 120 min / Pre-Triton TG: compound 1 at 10 mg/kg by gavage, mean ± SEM; for Plasma TG at 120 min: 120 min after Triton WR-1339 100 mg/kg i.v.; for Pre-Triton TG: before Triton WR-1339, Intralipid 10 mL/kg 30 min later
Description: Male Sprague Dawley rats were studied at 9 and 10 weeks of age and were overnight fasted the night prior to study. The compound treated groups received a suspension of compound 1 at 10 mg/kg administered in 0.5% methyl cellulose with 0.1% Tween-80 at […]. Vehicle treated groups were dosed in a volume-matched manner with 0.5% methyl cellulose with 0.1% Tween-80. Vehicle and compounds were made up in a single batch the day before the start of each study. Orlistat was administered as a suspension in 0.5% methyl cellulose with 0.1% Tween-80 at 4 mL/kg. Intralipid was used as a high fat meal. Triton WR-1339 (10% weight: weight) was dissolved in normal saline and dosed at 100 mg/kg (i.v.) at a volume of 1 mL/kg. A baseline blood sample was collected by tail nick into ethylenediaminetetraacetic acid-lined tubes (Sarstedt, Nümbrecht, Germany) immediately prior to administering compounds (between 0830 and 0900 hrs). Rats were gavaged with drug or vehicle (4 mL/kg) beginning at 0830 hrs. Thirty minutes later, Intralipid was gavaged at 10 mL/kg to all rats, representing t=−30 min. Again, thirty minutes later, representing time=0 min, all rats were dosed via tail vein with Triton WR-1339 (100 mg/kg and 1 mL/kg) in normal saline. Blood samples were taken at −30 minutes (immediately prior to Intralipid/water dosing), −15 minutes, 0 minutes (immediately prior to Triton WR-1339 administration), as well as at 30, 60, 90, 120, and 240 minutes following administration of Triton WR-1339. Blood samples remained on ice following collection for no longer than 30 min prior to centrifugation. Following centrifugation (10 min, 4° C., 1000×g), plasma was aliquoted for plasma TG analysis. Data are reported as means±SEM. Repeated measures two-way ANOVA was used to assess the significance of the treatment by time interaction in plasma TGs followed by Tukey's post-hoc test to compare differences among the groups. Significance was set at P<0.05 and represented as asterisks in FIG. 3.

FCS (Type I) patients = assay: Open-label clinical study, fasting and postprandial (MTT) triglycerides in FCS patients; assay type: in vivo, human
Description: (§1) An open-label, multiple-dose, parallel group clinical study is carried out to assess the safety, tolerability, pharmacokinetics and pharmacodynamics of compound 1 in twelve patients with chylomicronemia (six with FCS and six with Type V).
(§2) The safety and tolerability of multiple doses of Compound 1 in patients with chylomicronemia (both FCS and Type V), and the effect of oral Compound 1 on fasting and postprandial plasma triglycerides in the study population are determined using the following method.
(§3) The clinical study is an open-label, out-patient parallel group study to assess the safety, tolerability, pharmacokinetics and pharmacodynamics of Compound 1 administered once daily for 21 days in patients with chylomicronemia (both FCS and Type V). Six patients of each phenotype are enrolled and treated with Compound 1 at 20 mg per day for 21 days. Following a screening period of up to 90 days, eligible patients undergo a 7-day baseline period, a 21-day treatment period, a 14-day follow-up period after last treatment day and a study completion evaluation.
(§4) The enrolling criteria for Type V patients is a screening baseline of greater than or equal to 1000 mg/dL fasting triglycerides (TG), and a documented history of heterozygous lipoprotein lipase deficiency. The enrolling criteria for familial chylomicronemia syndrome (FCS) patients is a screening baseline of greater than or equal to 1000 mg/dL fasting triglycerides, and a documented history of homozygous lipoprotein lipase deficiency.
(§5) Patients are seen at a screening visit, and, if found to meet enrollment criteria, are enrolled in the study. At this time they are given instructions to adhere to a very low fat diet (<15 g/day) during the duration of the study, as is the standard of care for this population. Patients are also provided with three days' worth of standardized very low fat meals that are consumed for the three days prior to baseline evaluation (Day—4, Day—3, & Day—2)
(§6) Patients arrive at the study site on Day—1 early morning after an overnight fast for a meal tolerance test (MTT) to evaluate baseline postprandial triglyceride (TG) response. The MTT is a liquid meal of approximately 700 kcal, being 13% fat, 65% carbohydrates and 22% protein. Before the MTT, and at hourly time points through 9 hours, blood samples are taken for triglyceride and other metabolic measurements. Patients are discharged after completing this assessment and return to the study site next morning (Day 1) for a blood collection approximately 24 hours post meal, before the first dose of the study drug (Compound 1 tablets) is administered.
(§7) On the morning of Day 1, patients receive the first dose of Compound 1 at the clinic site. The drug supply for remainder of the 21-day treatment period is provided to the patients, who are instructed to take the drug orally once daily approximately one hour before breakfast for 21 days. Patients are also instructed to continue adherance to a very low fat diet. Patients are then released to home.
(§8) Patients report to the study site once weekly during the treatment period for safety and pharmacokinetics assessment, drug accountability and reviewing the meal plan and food diary. Additionally, the site staff contacts patients by phone, at least once between the clinic visits to check patients' wellbeing and monitor compliance with drug administration and low-fat meals instructions.
(§9) Patients are given pre-prepared very low-fat meals again that are consumed on Day 18, 19 & 20. Patients return to the study site on Day 21 early morning after an overnight fast for a second test meal (MTT) and frequent blood samples collection to evaluate postprandial TG response. Following the MTT and associated Day 21 assessments, patients are discharged to home. They return on the morning of Day 22 for a 24 h blood sample for triglycerides.

Type V patients = assay: Open-label clinical study, fasting and postprandial (MTT) triglycerides in Type V patients; assay type: in vivo, human
Description: as §1, §2, §3, §4, §5, §6, §7, §8, §9

[1] = system: patients with chylomicronemia (both FCS and Type V); assay: Open-label clinical study, safety and tolerability and overall triglyceride effect in patients with chylomicronemia (FCS and Type V); assay type: in vivo
Description: as §1, §2, §3
The enrolling criteria for Type V patients is a screening baseline of greater than or equal to 1000 mg/dL fasting triglycerides (TG), and a documented history of heterozygous lipoprotein lipase deficiency. […]

[2] = Type I (FCS) patients, n = 6, 20 mg per day oral for 21 days, MTT
[3] = Type I (FCS) patients, n = 6, MTT before treatment
[4] = n = 6, 20 mg per day oral for 21 days, MTT

O=C([O-])C[C@H]1CC[C@H](c2ccc(-c3ccc(Nc4ccc(C(F)(F)F)nc4)cn3)cc2)CC1.[Na+] [Compound 1, trans-4-[4-[5-[[6-(trifluoromethyl)-3-pyridinyl]amino]-2-pyridinyl]phenyl]cyclohexane acetic acid, sodium salt]
Plasma TG at 2 hrs (STZ rats): 494.5 ± 54.2 mg/dL | Plasma TG at 4 hrs (STZ rats): 461.5 ± 52.5 mg/dL | Plasma TGs at 4 hrs compared between groups (STZ rats; 10 mpk oral): did not differ | Plasma TGs at 2 hrs compared to vehicle and orlistat groups (STZ rats; 10 mpk oral, P≦0.001): significantly lower | Pre-dose TG (STZ rats): 346.1 ± 49.6 mg/dL | Blunting an increase in plasma triglycerides (STZ rats; model of severe hypertriglyceridemia): effective | Plasma TG at 90 min (Triton rat): 290.2 ± 89.7 mg/dL | Plasma TG at 120 min (Triton rat): 479.3 ± 123.4 mg/dL | Pre-Triton TG (Triton rat): 35.6 ± 5.6 mg/dL | Rate of absorption of triglycerides arising from a high fat meal (Triton rat; conclusion from Triton rat data): suppresses | Plasma TG appearance compared to vehicle and orlistat treatments (Triton rat; following Intralipid bolus, at 90 and 120 minutes post Triton WR-1339, P≦0.05): significantly decreased | Fasting TG, Mean Δ from Baseline (FCS (Type I) patients; Type I (FCS) patients, n = 6, 20 mg per day oral for 21 days): −38.4% | Postprandial Peak TG, Mean Δ from Baseline (FCS (Type I) patients; [2]): −36.4% | Postprandial TG AUC0-9, Mean Δ from Baseline (FCS (Type I) patients; [2]): −35.4% | Postprandial Peak TG, Mean Baseline (FCS (Type I) patients; [3]): 1913.1 mg/dL | Postprandial TG AUC0-9, Mean Baseline (FCS (Type I) patients; [3]): 15044.5 mg·h/dL | Fasting TG, Mean Baseline (FCS (Type I) patients; Type I (FCS) patients, n = 6, before treatment): 1968.0 mg/dL | Fasting triglycerides decreased by (FCS (Type I) patients; patients with FCS, 20 mg daily for 3 weeks): 38.4% | Postprandial triglycerides (FCS (Type I) patients; patients with FCS, 20 mg daily for 3 weeks, relative to fasting TG decrease): reduced by a similar magnitude | Triglyceride levels decreased by (FCS (Type I) patients; patients with FCS, to near the threshold for increased pancreatitis risk (about 1000 mg/dL)): about 40% | Fasting triglycerides decreased by (Type V patients; 20 mg daily for 3 weeks): 23.6% | Triglyceride levels relative to the threshold for increased pancreatitis risk (about 1000 mg/dL) (Type V patients; 20 mg daily for 3 weeks): kept well below the threshold | Postprandial triglycerides (Type V patients; 20 mg daily for 3 weeks, relative to fasting TG decrease): reduced by a similar magnitude | Fasting TG, Mean Δ from Baseline (Type V patients; n = 6, 20 mg per day oral for 21 days): −23.6% | Postprandial Peak TG, Mean Δ from Baseline (Type V patients; [4]): −25.8% | Postprandial TG AUC0-9, Mean Δ from Baseline (Type V patients; [4]): −27.3% | Postprandial Peak TG, Mean Baseline (Type V patients; n = 6, MTT before treatment): 835.2 mg/dL | Postprandial TG AUC0-9, Mean Baseline (Type V patients; n = 6, MTT before treatment): 6873.0 mg·h/dL | Fasting TG, Mean Baseline (Type V patients; n = 6, before treatment): 745.8 mg/dL | Safety and tolerability ([1]; all 12 patients, 20 mg daily for 3 weeks): safe and well tolerated | Triglyceride levels after 3 weeks of treatment ([1]; both groups of patients (FCS and Type V), 20 mg daily): decreased

CCCCCCCCCCC[C@@H](C[C@@H]1OC(=O)[C@H]1CCCCCC)OC(=O)[C@H](CC(C)C)NC=O [Orlistat, reference compound]
Plasma TG at 2 hrs (STZ rats): 891.8 ± 97.8 mg/dL | Plasma TG at 4 hrs (STZ rats): 236.3 ± 37.9 mg/dL | Plasma TGs at 4 hrs compared between groups (STZ rats; 10 mpk oral): lower than the other 2 groups | Pre-dose TG (STZ rats): 288.4 ± 27.4 mg/dL | Plasma TG at 90 min (Triton rat): 747.3 ± 203.7 mg/dL | Plasma TG at 120 min (Triton rat): 984.9 ± 251.7 mg/dL | Pre-Triton TG (Triton rat): 114.5 ± 13.0 mg/dL
